{"source": "patent US20200164006A1", "about": "“METHODS AND COMPOSITIONS OF INCORPORATING A BIOACTIVE AGENT AND USE THEREOF” (INNOVANUTRA INC., priority 2017, published 2020)", "key": {"[1]": {"test": "Incorporation of quercetin in microbial carriers, extraction and absorbance at 388 nm (incorporation yield and efficiency)", "format": "physicochemical", "settings": "cell incorporation process", "experimental": "The phrases “loading efficiency” or “incorporation efficiency” interchangeably refer to the incorporation efficiency on both wet basis determined as follows: IE(%)=CE/CT×100, where CE is the mass of extracted bioactive from the lipid membrane microcapsules after incorporation on a wet basis and CT is the amount of bioactive initially added to the lipid membrane microcapsules. A standard calibration curve was spectrophotometrically obtained for quercetin (QU995 is the food-grade form of quercetin) in dimethyl sulfoxide (DMSO). Incorporation of quercetin in yeast cells with ethanol-buffer mixture was achieved by a non-thermal, vacuum infusion method. Inactivated food-grade yeast cells were used to incorporate quercetin with an initial aim of achieving an incorporation yield or loading percent of 0.5%. The dry yeast cells were first washed with deionized water and an ethanol solution. The washed cells were weighed for use as control (without quercetin) and sample (with quercetin). The incorporation was done in high vacuum conditions and the control and sample were incubated in the dark. […] A 500 μL of supernatant was removed and measured absorbance at 388 nm. […] The problem encountered in a quadruple infusion was crystallization of quercetin around carriers, instead of being incorporated (determined by a multiphoton fluorescence imaging). […]"}, "[2]": {"test": "pH stability for quercetin in yeast, in L. casei and unincorporated quercetin", "format": "physicochemical", "settings": "pH 3, 4, 5, 6 over time; extraction at every time point", "experimental": "A comparative pH test at different pH's (3, 4, 5, 6) was done with quercetin incorporated in yeast, in L. casei and un-incorporated quercetin. At every time point, an extraction was done to spectrophotometrically determine the amount of quercetin retained. […] The percent retention is calculated by dividing the absorbance value at each time point with the absorbance value at the initial t=0."}}, "data": [{"smiles": "O=c1c(O)c(-c2ccc(O)c(O)c2)oc2cc(O)cc(O)c12", "note": "[quercetin]", "values": [{"measurement": "amount of quercetin that can efficiently incorporate into the cells", "setting": "[1]", "result": 12.517, "unit": "mg/g"}, {"measurement": "pH stability (amount of quercetin retained)", "setting": "[2]", "result": "rapid degradation over time"}]}]}
